What was measured:
Type in all cases: biochemical
protease = assay: Protease activity retention in detergent use solution (4000 ppm, 5 GPG water; peptidyl substrate, glycine buffer pH 9.0); settings: base formula, use solution at 120° F.
Procedure, shortened: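 Detergent use solutions at 4000 ppm in 5 GPG water were held at 120° F with stirring and sampled up to 4 h, with aliquots flash-frozen. Activity was read on a peptidyl substrate in glycine buffer pH 9.0 by absorbance against a calibration curve. Retention is % activity relative to the t=0 sample.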

lipase = assay: Lipase activity retention in detergent use solution (4000 ppm, 5 GPG water; p-nitrophenyl valerate, TRIS buffer pH 8.0); settings: base formula
Procedure, shortened: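 Lipase stability was measured in a detergent use solution under conditions mimicking presoak or manual warewash, with stirring in a water bath. Aliquots were taken over time and flash-frozen. Thawed samples were diluted in TRIS buffer at pH 8.0 and assayed with p-nitrophenyl valerate as substrate on a plate reader. Activity is reported as % retained relative to the time=0 sample.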

[1] = test system: enzyme (protease, amylase, lipase); assay: Overall effects of phosphonates on enzyme activity (Table 3); settings: overall effect of the phosphonate on enzyme activity in the detergent use solution
Procedure, shortened: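 Protease, amylase and lipase activity in detergent use solutions with varied phosphonate levels, 4000 ppm in 5 GPG water at 120° F., sampled up to 4 h and frozen at −80° C. before assay. Activity given as % retention relative to t=0 (100%).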

Polyamino Polyether Methylene Phosphonic Acid [PAPEMP]
Relative Protease Enzyme Activity (protease; phosphonate 0.3 wt-%, lower half of Table 4A, time 5): 107.31%
Relative Protease Enzyme Activity (protease; phosphonate 0.3 wt-%, lower half of Table 4A, time 20): 105.51%
Relative Protease Enzyme Activity (protease; phosphonate 0.3 wt-%, lower half of Table 4A, time 90): 96.21%
Relative Protease Enzyme Activity (protease; phosphonate 0.3 wt-%, lower half of Table 4A, time 120): 99.48%
Relative Protease Enzyme Activity (protease; phosphonate 0.3 wt-%, lower half of Table 4A, time 150, unit not given): 93.74%
Relative Protease Enzyme Activity (protease; phosphonate 0.3 wt-%, lower half of Table 4A, time 210): 92.79%
Relative Protease Enzyme Activity (protease; phosphonate 0.3 wt-%, lower half of Table 4A, time '0'): 100.00%
Relative Protease Enzyme Activity (protease; phosphonate 0.3 wt-%, lower half of Table 4A, time '40'): 100.17%
Relative Protease Enzyme Activity (protease; phosphonate 0.3 wt-%, lower half of Table 4A, time 'Blank'): 100.00%
Relative Protease Enzyme Activity (protease; phosphonate 0.3 wt-%, lower half of Table 4A, time row printed '10'): 109.98%
Relative Protease Enzyme Activity (protease; phosphonate 0.3 wt-%, lower half of Table 4A, time row printed '60'): 89.50%
Relative Protease Enzyme Activity (protease; phosphonate 0.3 wt-%, lower half of Table 4A, time row printed '180'): 86.60%
Relative Protease Enzyme Activity (protease; phosphonate 0.6 wt-%, time 0 min): 100.00%
Relative Protease Enzyme Activity (protease; phosphonate 0.6 wt-%, time 5 min): 98.49%
Relative Protease Enzyme Activity (protease; phosphonate 0.6 wt-%, time 10 min): 96.69%
Relative Protease Enzyme Activity (protease; phosphonate 0.6 wt-%, time 20 min): 93.71%
Relative Protease Enzyme Activity (protease; phosphonate 0.6 wt-%, time 40 min): 92.60%
Relative Protease Enzyme Activity (protease; phosphonate 0.6 wt-%, time 60 min): 92.60%
Relative Protease Enzyme Activity (protease; phosphonate 0.6 wt-%, time 90 min): 86.28%
Relative Protease Enzyme Activity (protease; phosphonate 0.6 wt-%, time 120 min): 88.30%
Relative Protease Enzyme Activity (protease; phosphonate 0.6 wt-%, time 150 min): 89.66%
Relative Protease Enzyme Activity (protease; phosphonate 0.6 wt-%, time 180 min): 86.90%
Relative Protease Enzyme Activity (protease; phosphonate 0.6 wt-%, time 210 min): 87.49%
Relative Protease Enzyme Activity (protease; phosphonate 0.6 wt-%, time 240 min): 86.53%
Relative Protease Enzyme Activity (protease; phosphonate at 0.1% elemental phosphorus, time 0 min): 100.00%
Relative Protease Enzyme Activity (protease; phosphonate at 0.1% elemental phosphorus, time 5 min): 95.74%
Relative Protease Enzyme Activity (protease; phosphonate at 0.1% elemental phosphorus, time 10 min): 95.47%
Relative Protease Enzyme Activity (protease; phosphonate at 0.1% elemental phosphorus, time 20 min): 92.78%
Relative Protease Enzyme Activity (protease; phosphonate at 0.1% elemental phosphorus, time 40 min): 86.55%
Relative Protease Enzyme Activity (protease; phosphonate at 0.1% elemental phosphorus, time 60 min): 87.49%
Relative Protease Enzyme Activity (protease; phosphonate at 0.1% elemental phosphorus, time 90 min): 86.61%
Relative Protease Enzyme Activity (protease; phosphonate at 0.1% elemental phosphorus, time 120 min): 86.34%
Relative Protease Enzyme Activity (protease; phosphonate at 0.1% elemental phosphorus, time 150 min): 84.01%
Relative Protease Enzyme Activity (protease; phosphonate at 0.1% elemental phosphorus, time 180 min): 71.92%
Relative Protease Enzyme Activity (protease; phosphonate at 0.1% elemental phosphorus, time 210 min): 80.74%
Relative Protease Enzyme Activity (protease; phosphonate at 0.1% elemental phosphorus, time 240 min): 79.08%
Relative Lipase Enzyme Activity (lipase; phosphonate 0.3 wt-%, use solution at 120° F., time 0 min): 49.99%
Relative Lipase Enzyme Activity (lipase; phosphonate 0.3 wt-%, use solution at 120° F., time 5 min): 100.00%
Relative Lipase Enzyme Activity (lipase; phosphonate 0.3 wt-%, use solution at 120° F., time 10 min): 92.85%
Relative Lipase Enzyme Activity (lipase; phosphonate 0.3 wt-%, use solution at 120° F., time 20 min): 77.81%
Relative Lipase Enzyme Activity (lipase; phosphonate 0.3 wt-%, use solution at 120° F., time 40 min): 54.24%
Relative Lipase Enzyme Activity (lipase; phosphonate 0.3 wt-%, use solution at 120° F., time 60 min): 51.08%
Relative Lipase Enzyme Activity (lipase; phosphonate 0.3 wt-%, use solution at 120° F., time 90 min): 45.80%
Relative Lipase Enzyme Activity (lipase; phosphonate 0.3 wt-%, use solution at 120° F., time 120 min): 36.29%
Relative Lipase Enzyme Activity (lipase; phosphonate 0.3 wt-%, use solution at 120° F., time 150 min): 33.14%
Relative Lipase Enzyme Activity (lipase; phosphonate 0.3 wt-%, use solution at 120° F., time 180 min): 28.25%
Relative Lipase Enzyme Activity (lipase; phosphonate 0.3 wt-%, use solution at 120° F., time 210 min): 26.56%
Relative Lipase Enzyme Activity (lipase; phosphonate 0.3 wt-%, use solution at 120° F., time 240 min): 24.03%
Relative Lipase Enzyme Activity (lipase; phosphonate 0.6 wt-%, use solution at 120º F., time 0 min): 100.00%
Relative Lipase Enzyme Activity (lipase; phosphonate 0.6 wt-%, use solution at 120º F., time 5 min): 86.04%
Relative Lipase Enzyme Activity (lipase; phosphonate 0.6 wt-%, use solution at 120º F., time 10 min): 83.42%
Relative Lipase Enzyme Activity (lipase; phosphonate 0.6 wt-%, use solution at 120º F., time 20 min): 73.22%
Relative Lipase Enzyme Activity (lipase; phosphonate 0.6 wt-%, use solution at 120º F., time 40 min): 64.86%
Relative Lipase Enzyme Activity (lipase; phosphonate 0.6 wt-%, use solution at 120º F., time 60 min): 59.26%
Relative Lipase Enzyme Activity (lipase; phosphonate 0.6 wt-%, use solution at 120º F., time 90 min): 47.33%
Relative Lipase Enzyme Activity (lipase; phosphonate 0.6 wt-%, use solution at 120º F., time 120 min): 42.05%
Relative Lipase Enzyme Activity (lipase; phosphonate 0.6 wt-%, use solution at 120º F., time 150 min): 38.58%
Relative Lipase Enzyme Activity (lipase; phosphonate 0.6 wt-%, use solution at 120º F., time 180 min): 29.04%
Relative Lipase Enzyme Activity (lipase; phosphonate 0.6 wt-%, use solution at 120º F., time 210 min): 31.37%
Relative Lipase Enzyme Activity (lipase; phosphonate 0.6 wt-%, use solution at 120º F., time 240 min): 29.77%
Relative Lipase Enzyme Activity (lipase; phosphonate at 0.1% elemental phosphorus, at 120º F. or at room temperature (as titled), time 0 min): 100.00%
Relative Lipase Enzyme Activity (lipase; phosphonate at 0.1% elemental phosphorus, at 120º F. or at room temperature (as titled), time 5 min): 91.09%
Relative Lipase Enzyme Activity (lipase; phosphonate at 0.1% elemental phosphorus, at 120º F. or at room temperature (as titled), time 10 min): 83.66%
Relative Lipase Enzyme Activity (lipase; phosphonate at 0.1% elemental phosphorus, at 120º F. or at room temperature (as titled), time 20 min): 75.51%
Relative Lipase Enzyme Activity (lipase; phosphonate at 0.1% elemental phosphorus, at 120º F. or at room temperature (as titled), time 40 min): 58.49%
Relative Lipase Enzyme Activity (lipase; phosphonate at 0.1% elemental phosphorus, at 120º F. or at room temperature (as titled), time 60 min): 54.87%
Relative Lipase Enzyme Activity (lipase; phosphonate at 0.1% elemental phosphorus, at 120º F. or at room temperature (as titled), time 90 min): 48.29%
Relative Lipase Enzyme Activity (lipase; phosphonate at 0.1% elemental phosphorus, at 120º F. or at room temperature (as titled), time 120 min): 42.46%
Relative Lipase Enzyme Activity (lipase; phosphonate at 0.1% elemental phosphorus, at 120º F. or at room temperature (as titled), time 150 min): 38.07%
Relative Lipase Enzyme Activity (lipase; phosphonate at 0.1% elemental phosphorus, at 120º F. or at room temperature (as titled), time 180 min): 33.57%
Relative Lipase Enzyme Activity (lipase; phosphonate at 0.1% elemental phosphorus, at 120º F. or at room temperature (as titled), time 210 min): 31.15%
Relative Lipase Enzyme Activity (lipase; phosphonate at 0.1% elemental phosphorus, at 120º F. or at room temperature (as titled), time 240 min): 31.01%
Stability (effects on enzyme activity) [1]: Yes
